The values below come from US20240199605A1, “SMALL MOLECULAR INHIBITORS OF NF-kB INDUCING KINASE” (Janssen Pharmaceutica NV, priority 2019, published 2024).

Structures are written as SMILES. Some results are limits rather than exact numbers.

The target in test [1] is recombinant human NF-kappaB-inducing kinase (NIK/MAP3K14) (Homo sapiens (Human), UniProt Q99558). The test can be described thus: Inhibition of auto-phosphorylation of recombinant human NIK/MAP3K14 (AlphaScreen). The note with it: NIK auto-phosphorylation, 5 μM ATP, 1 nM NIK, 2 h at 25° C.; average of values. Format: biochemical. In a few lines:
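AlphaScreen read-out (anti-phospho-IKK Ser176/180 antibody, Protein A acceptor and glutathione donor beads) of NIK auto-phosphorylation. Reaction: 1 nM enzyme, 5 μM ATP, Tris pH 7.5 buffer with Mg2+ and vanadate, 2 h at 25° C., final DMSO 0.7%. IC50 came from a sigmoidal curve fit.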
In general terms: Alpha assays give light when donor and acceptor beads are brought close together.

The subject of test [2] is p-IKKα levels in L363 (NIK translocated multiple myeloma) cells. Briefly: Effect of compounds on p-IKKα levels in L363 cells (AlphaLISA SureFire Ultra). The settings on record: Homo sapiens, L-363, 6 h, BAFF stimulated, MG132, 6 h, average of values, read-out: Assay 2 IC50. Format: cell-based, human. In a few lines: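 Inhibition of p-IKKα (Ser176/180) read by AlphaLISA after 6 h, 37 °C compound exposure (11-point 1:3 series, 0.3% DMSO) of L363 cells pre-incubated overnight ± 250 ng/ml BAFF and plated ± BAFF ± 10 μM MG132. Normalised to BAFF/MG132/DMSO and unstimulated controls; IC50 by sigmoidal fitting, duplicates.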

The term IC50 denotes the concentration that gives 50% inhibition.

Sequence of recombinant human NF-kappaB-inducing kinase (NIK/MAP3K14) (Q99558 whole entry): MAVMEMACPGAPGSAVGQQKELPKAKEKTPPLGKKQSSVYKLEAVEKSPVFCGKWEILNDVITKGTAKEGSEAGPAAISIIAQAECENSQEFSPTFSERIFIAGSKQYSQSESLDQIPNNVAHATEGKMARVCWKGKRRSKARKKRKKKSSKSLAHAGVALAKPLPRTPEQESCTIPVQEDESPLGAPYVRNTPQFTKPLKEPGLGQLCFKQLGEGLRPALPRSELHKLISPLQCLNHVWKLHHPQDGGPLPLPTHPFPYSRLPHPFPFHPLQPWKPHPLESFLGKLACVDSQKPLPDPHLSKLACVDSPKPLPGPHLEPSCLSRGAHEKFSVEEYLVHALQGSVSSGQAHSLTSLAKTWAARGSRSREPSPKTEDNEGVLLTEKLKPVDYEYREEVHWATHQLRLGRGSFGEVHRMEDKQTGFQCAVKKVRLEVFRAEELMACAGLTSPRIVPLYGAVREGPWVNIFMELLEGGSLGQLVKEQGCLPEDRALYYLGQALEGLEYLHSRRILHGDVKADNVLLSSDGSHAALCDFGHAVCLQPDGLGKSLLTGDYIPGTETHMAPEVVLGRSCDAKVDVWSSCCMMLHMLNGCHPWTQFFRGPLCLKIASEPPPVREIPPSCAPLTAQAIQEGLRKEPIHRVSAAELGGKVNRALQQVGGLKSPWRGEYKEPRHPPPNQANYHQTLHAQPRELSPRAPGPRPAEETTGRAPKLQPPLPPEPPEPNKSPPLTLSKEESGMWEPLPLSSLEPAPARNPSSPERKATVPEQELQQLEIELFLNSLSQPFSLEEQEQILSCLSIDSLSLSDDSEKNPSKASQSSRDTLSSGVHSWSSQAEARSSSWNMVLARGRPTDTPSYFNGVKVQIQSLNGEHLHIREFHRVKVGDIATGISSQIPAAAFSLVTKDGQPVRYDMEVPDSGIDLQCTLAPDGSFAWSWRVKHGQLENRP

In the case of `CN1CC[C@@](O)(C#Cc2cccc(-c3ccc4ncnc(C#N)c4n3)c2)C1=O` [Example 279, (R)-6-(3-((3-Hydroxy-1-methyl-2-oxopyrrolidin-3-yl)ethynyl)phenyl)pyrido[3,2-d]pyrimidine-4-carbonitrile], the IC50 was 1510 nM in test [1] and > 5000 nM in test [2].

Regarding `CN1CC[C@@](O)(C#Cc2cccc(-c3cc(C(F)(F)F)c4ncnc(N)c4n3)c2)C1=O` [Example 284, (R)-3-((3-(4-Amino-8-(trifluoromethyl)pyrido[3,2-d]pyrimidin-6-yl)phenyl)ethynyl)-3-hydroxy-1-methylpyrrolidin-2-one], the IC50 in test [1] came out at 0.7 nM; in test [2], 2.8 nM.

`Cc1cc(C#C[C@]2(O)CCc3cccnc32)cc(-c2ncc3ccnc(N)c3n2)c1` [Example 52, (R)-7-[2-[3-(8-Aminopyrido[3,4-d]pyrimidin-2-yl)-5-methyl-phenyl]ethynyl]-5,6-dihydrocyclopenta[b]pyridin-7-ol]: the IC50 in test [1] worked out at 2.5 nM; in test [2] it was 110 nM.

With `Cc1nc(N)c2nc(-c3cccc(C#C[C@](C)(O)c4nc(C(F)(F)F)cs4)c3)ccc2n1` [Example 193, (S)-4-(3-(4-Amino-2-methylpyrido[3,2-d]pyrimidin-6-yl)phenyl)-2-(4-(trifluoromethyl)thiazol-2-yl)but-3-yn-2-ol], the figures for the IC50 in test [1] and in test [2] were 2370 nM and > 5000 nM, respectively.

Take `COc1ccc(C#C[C@]2(O)CCN(C)C2=O)cc1-c1ncc2ncnc(N)c2n1` [Example 177, (R)-3-((3-(8-Aminopyrimido[5,4-d]pyrimidin-2-yl)-4-methoxyphenyl)ethynyl)-3-hydroxy-1-methylpyrrolidin-2-one]: the IC50 in test [1] amounted to 5.1 nM; in test [2], 66 nM.

As for `Cc1nc(N)c2nc(-c3cccc(C#C[C@@](C)(O)c4nccs4)c3)ccc2n1` [Example 164, (R)-4-(3-(4-Amino-2-methylpyrido[3,2-d]pyrimidin-6-yl)phenyl)-2-(thiazol-2-yl)but-3-yn-2-ol], the IC50 in test [1] is 0.7 nM; in test [2], 78 nM.

On to `COc1ccc(C#C[C@]2(O)CCN(C)C2=O)cc1-c1ncc2ccnc(N)c2n1` [Example 53, (R)-3-((3-(8-Aminopyrido[3,4-d]pyrimidin-2-yl)-4-methoxyphenyl)ethynyl)-3-hydroxy-1-methylpyrrolidin-2-one], for which the IC50 in test [1] stood at 2 nM; in test [2], 49 nM.

For the molecule `Cc1nnc([C@](C)(O)C#Cc2ccc(C)c(-c3ncc4ccnc(N)c4n3)c2)o1` [Example 74, (R)-4-(3-(8-Aminopyrido[3,4-d]pyrimidin-2-yl)-4-methylphenyl)-2-(5-methyl-1,3,4-oxadiazol-2-yl)but-3-yn-2-ol], the IC50 came out at 56 nM in test [1] and 2950 nM in test [2].

As to `CN1CC[C@](O)(C#Cc2cccc(-c3ccc4ncnc(N5CCC5)c4n3)c2)C1=O` [Example 231, (S)-3-((3-(4-(Azetidin-1-yl)pyrido[3,2-d]pyrimidin-6-yl)phenyl)ethynyl)-3-hydroxy-1-methylpyrrolidin-2-one], the IC50 in test [1] is 340 nM; in test [2], > 5000 nM.

As for `Cc1nc(N)c2nc(-c3cccc(C#C[C@]4(O)CCCN(C)C4=O)c3)ccc2n1` [Example 187, (R)-3-((3-(4-Amino-2-methylpyrido[3,2-d]pyrimidin-6-yl)phenyl)ethynyl)-3-hydroxy-1-methylpiperidin-2-one], the IC50 was 3.8 nM in test [1] and 190 nM in test [2].

Regarding `Cc1nccc2ccc(-c3cccc(C#C[C@]4(O)CCN(C)C4=O)c3)nc12` [Example 280, (R)-3-Hydroxy-1-methyl-3-((3-(8-methyl-1,7-naphthyridin-2-yl)phenyl)ethynyl)pyrrolidin-2-one], the IC50 in test [1] stood at 45 nM; in test [2] it was 720 nM.

`Cc1nnc([C@](C)(O)C#Cc2cccc(-c3ncc4ccnc(N)c4n3)c2)o1` [Example 18, (R)-4-[3-(8-Aminopyrido[3,4-d]pyrimidin-2-yl)phenyl]-2-(5-methyl-1,3,4-oxadiazol-2-yl)but-3-yn-2-ol]: the IC50 is 0.9 nM in test [1] and 61 nM in test [2].

As for `Cc1cc2cnc(-c3cccc(C#C[C@@](C)(O)c4nccs4)c3)nc2c(N)n1` [Example 51, (R)-4-(3-(8-Amino-6-methylpyrido[3,4-d]pyrimidin-2-yl)phenyl)-2-(thiazol-2-yl)but-3-yn-2-ol], the IC50 came out at 1 nM in test [1] and 480 nM in test [2].

In the case of `Cc1ccc(C#C[C@]2(O)CCc3cccnc32)cc1-c1ccc2ccnc(N)c2c1` [Example 80, (R)-7-[2-[3-(1-Amino-7-isoquinolyl)-4-methyl-phenyl]ethynyl]-5,6-dihydrocyclopenta[b]pyridin-7-ol], the values for the IC50 in test [1] and in test [2] were 28 nM and 4000 nM, respectively.

As to `Cc1csc([C@](C)(O)C#Cc2cccc(-c3ccc4nc(C)nc(N)c4n3)c2)n1` [Example 180, (R)-4-(3-(4-Amino-2-methylpyrido[3,2-d]pyrimidin-6-yl)phenyl)-2-(4-methylthiazol-2-yl)but-3-yn-2-ol], the IC50 in test [1] was 410 nM; in test [2], > 5000 nM.

Consider `CN1CC[C@@](O)(C#Cc2cccc(-c3nc4c(N)nccc4c(=O)[nH]3)c2)C1=O` [Example 55, (R)-8-Amino-2-(3-((3-hydroxy-1-methyl-2-oxopyrrolidin-3-yl)ethynyl)phenyl)pyrido[3,4-d]pyrimidin-4(3H)-one], for which the half-inhibitory concentration (IC50) in test [1] was ≤ 0.5 nM; in test [2], 29 nM.

For the molecule `Cc1nc(N)c2nc(-c3cccc(C#C[C@]4(O)C[C@H](C)N(C)C4=O)c3)ccc2n1` [Example 268, (3R,5S)-3-((3-(4-Amino-2-methylpyrido[3,2-d]pyrimidin-6-yl)phenyl)ethynyl)-3-hydroxy-1,5-dimethylpyrrolidin-2-one], the IC50 came to 65 nM in test [1] and 585 nM in test [2].

On to `CN1CC[C@@](O)(C#Cc2cccc(-c3ccc4c(C#N)cnc(N)c4n3)c2)C1=O` [Example 118, (R)-8-Amino-2-[3-[2-(3-hydroxy-1-methyl-2-oxo-pyrrolidin-3-yl)ethynyl]phenyl]-1,7-naphthyridine-5-carbonitrile], for which the IC50 in test [1] was ≤ 0.5 nM; in test [2], 1.5 nM.

Turning to `CN1CC[C@@](O)(C#Cc2cccc(-c3cc4c(N)nccc4cn3)c2)C1=O` [Example 119, (R)-3-[2-[3-(5-Amino-2,6-naphthyridin-3-yl)phenyl]ethynyl]-3-hydroxy-1-methyl-pyrrolidin-2-one], the IC50 was found to be 0.7 nM in test [1] and 43 nM in test [2].

`[2H]c1nc(N)c2nc(-c3cccc(C#C[C@]4(O)CCN(C)C4=O)c3)cc(C3CCCC3)c2n1` [Example 277, (R)-3-((3-(4-Amino-8-cyclopentylpyrido[3,2-d]pyrimidin-6-yl-2-d)phenyl)ethynyl)-3-hydroxy-1-methylpyrrolidin-2-one]: the IC50 in test [1] is 0.7 nM; in test [2] it was 13 nM.

Regarding `Nc1nccc2cnc(-c3cccc(C#C[C@@]4(O)CCn5ccnc54)c3)nc12` [Example 64, (S)-7-[2-[3-(8-Aminopyrido[3,4-d]pyrimidin-2-yl)phenyl]ethynyl]-5,6-dihydropyrrolo[1,2-a]imidazol-7-ol], the values for the IC50 in test [1] and in test [2] were 31 nM and 730 nM, respectively.

As for `Cc1nc(-c2cccc(C#C[C@]3(O)CCn4ccnc43)c2)nc2c(N)nccc12` [Example 84, (R)-7-((3-(8-Amino-4-methylpyrido[3,4-d]pyrimidin-2-yl)phenyl)ethynyl)-6,7-dihydro-5H-pyrrolo[1,2-a]imidazol-7-ol], the results for the IC50 in test [1] and in test [2] were ≤ 0.5 nM and 5.5 nM, respectively.

Regarding `Cc1ncnc2ccc(-c3cccc(C#C[C@]4(O)CCN(C)C4=O)c3)nc12` [Example 23, (R)-3-Hydroxy-1-methyl-3-((3-(4-methylpyrido[3,2-d]pyrimidin-6-yl)phenyl)ethynyl)pyrrolidin-2-one], the IC50 in test [1] was 10 nM; in test [2], 260 nM.

`CN1CC[C@@](O)(C#Cc2cccc(-c3ccc4ncnc(N5CC(O)C5)c4n3)c2)C1=O` [Example 228, (R)-3-Hydroxy-3-((3-(4-(3-hydroxyazetidin-1-yl)pyrido[3,2-d]pyrimidin-6-yl)phenyl)ethynyl)-1-methylpyrrolidin-2-one]: the IC50 stood at 4.8 nM in test [1] and 300 nM in test [2].

For `CN1CC[C@@](O)(C#Cc2cccc(-c3ccc4ncnc(NCC#N)c4n3)c2)C1=O` [Example 240, (R)-2-((6-(3-((3-Hydroxy-1-methyl-2-oxopyrrolidin-3-yl)ethynyl)phenyl)pyrido[3,2-d]pyrimidin-4-yl)amino)acetonitrile], the figures for the IC50 in test [1] and in test [2] were 21 nM and 570 nM, respectively.

`Cc1nc(N)c2nc(-c3cccc(C#CC(C)(O)c4c[nH]cn4)c3)ccc2n1` (racemic) [Example 202, racemic-4-(3-(4-Amino-2-methylpyrido[3,2-d]pyrimidin-6-yl)phenyl)-2-(1H-imidazol-4-yl)but-3-yn-2-ol]: the values for the IC50 in test [1] and in test [2] were 1 nM and 280 nM, respectively.

As to `CN1CC[C@@](O)(C#Cc2cccc(-c3ncc4c(-c5ccc(C(F)(F)F)nc5)cnc(N)c4n3)c2)C1=O` [Example 147, (R)-3-[2-[3-[8-Amino-5-[6-(trifluoromethyl)-3-pyridyl]pyrido[3,4-d]pyrimidin-2-yl]phenyl]ethynyl]-3-hydroxy-1-methyl-pyrrolidin-2-one], the IC50 is ≤ 0.5 nM in test [1] and 14 nM in test [2].
